Experimental data: US10392391B2 (Vertex Pharmaceuticals Incorporated, priority 2012, dated 2019)
pKi: −log10 of the molar value.

molecular target: ATR kinase (full-length ATR) (Homo sapiens (Human), UniProt Q13535); assay: ATR inhibition assay (radioactive-phosphate incorporation); type: biochemical; conditions: not given
Procedure, shortened: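 Ki(app) was fitted by non-linear regression to background-corrected initial rates. Full-length ATR (5 nM) phosphorylated 800 μM peptide using 10 μM [γ-33P]ATP at 25° C in Tris/HCl pH 7.5 buffer with MgCl2, DTT and 7% DMSO. After 10-minute compound pre-incubation and 24-hour reaction, phosphocellulose filters were scintillation counted.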

Sequence of ATR kinase (full-length ATR) (Q13535 whole entry): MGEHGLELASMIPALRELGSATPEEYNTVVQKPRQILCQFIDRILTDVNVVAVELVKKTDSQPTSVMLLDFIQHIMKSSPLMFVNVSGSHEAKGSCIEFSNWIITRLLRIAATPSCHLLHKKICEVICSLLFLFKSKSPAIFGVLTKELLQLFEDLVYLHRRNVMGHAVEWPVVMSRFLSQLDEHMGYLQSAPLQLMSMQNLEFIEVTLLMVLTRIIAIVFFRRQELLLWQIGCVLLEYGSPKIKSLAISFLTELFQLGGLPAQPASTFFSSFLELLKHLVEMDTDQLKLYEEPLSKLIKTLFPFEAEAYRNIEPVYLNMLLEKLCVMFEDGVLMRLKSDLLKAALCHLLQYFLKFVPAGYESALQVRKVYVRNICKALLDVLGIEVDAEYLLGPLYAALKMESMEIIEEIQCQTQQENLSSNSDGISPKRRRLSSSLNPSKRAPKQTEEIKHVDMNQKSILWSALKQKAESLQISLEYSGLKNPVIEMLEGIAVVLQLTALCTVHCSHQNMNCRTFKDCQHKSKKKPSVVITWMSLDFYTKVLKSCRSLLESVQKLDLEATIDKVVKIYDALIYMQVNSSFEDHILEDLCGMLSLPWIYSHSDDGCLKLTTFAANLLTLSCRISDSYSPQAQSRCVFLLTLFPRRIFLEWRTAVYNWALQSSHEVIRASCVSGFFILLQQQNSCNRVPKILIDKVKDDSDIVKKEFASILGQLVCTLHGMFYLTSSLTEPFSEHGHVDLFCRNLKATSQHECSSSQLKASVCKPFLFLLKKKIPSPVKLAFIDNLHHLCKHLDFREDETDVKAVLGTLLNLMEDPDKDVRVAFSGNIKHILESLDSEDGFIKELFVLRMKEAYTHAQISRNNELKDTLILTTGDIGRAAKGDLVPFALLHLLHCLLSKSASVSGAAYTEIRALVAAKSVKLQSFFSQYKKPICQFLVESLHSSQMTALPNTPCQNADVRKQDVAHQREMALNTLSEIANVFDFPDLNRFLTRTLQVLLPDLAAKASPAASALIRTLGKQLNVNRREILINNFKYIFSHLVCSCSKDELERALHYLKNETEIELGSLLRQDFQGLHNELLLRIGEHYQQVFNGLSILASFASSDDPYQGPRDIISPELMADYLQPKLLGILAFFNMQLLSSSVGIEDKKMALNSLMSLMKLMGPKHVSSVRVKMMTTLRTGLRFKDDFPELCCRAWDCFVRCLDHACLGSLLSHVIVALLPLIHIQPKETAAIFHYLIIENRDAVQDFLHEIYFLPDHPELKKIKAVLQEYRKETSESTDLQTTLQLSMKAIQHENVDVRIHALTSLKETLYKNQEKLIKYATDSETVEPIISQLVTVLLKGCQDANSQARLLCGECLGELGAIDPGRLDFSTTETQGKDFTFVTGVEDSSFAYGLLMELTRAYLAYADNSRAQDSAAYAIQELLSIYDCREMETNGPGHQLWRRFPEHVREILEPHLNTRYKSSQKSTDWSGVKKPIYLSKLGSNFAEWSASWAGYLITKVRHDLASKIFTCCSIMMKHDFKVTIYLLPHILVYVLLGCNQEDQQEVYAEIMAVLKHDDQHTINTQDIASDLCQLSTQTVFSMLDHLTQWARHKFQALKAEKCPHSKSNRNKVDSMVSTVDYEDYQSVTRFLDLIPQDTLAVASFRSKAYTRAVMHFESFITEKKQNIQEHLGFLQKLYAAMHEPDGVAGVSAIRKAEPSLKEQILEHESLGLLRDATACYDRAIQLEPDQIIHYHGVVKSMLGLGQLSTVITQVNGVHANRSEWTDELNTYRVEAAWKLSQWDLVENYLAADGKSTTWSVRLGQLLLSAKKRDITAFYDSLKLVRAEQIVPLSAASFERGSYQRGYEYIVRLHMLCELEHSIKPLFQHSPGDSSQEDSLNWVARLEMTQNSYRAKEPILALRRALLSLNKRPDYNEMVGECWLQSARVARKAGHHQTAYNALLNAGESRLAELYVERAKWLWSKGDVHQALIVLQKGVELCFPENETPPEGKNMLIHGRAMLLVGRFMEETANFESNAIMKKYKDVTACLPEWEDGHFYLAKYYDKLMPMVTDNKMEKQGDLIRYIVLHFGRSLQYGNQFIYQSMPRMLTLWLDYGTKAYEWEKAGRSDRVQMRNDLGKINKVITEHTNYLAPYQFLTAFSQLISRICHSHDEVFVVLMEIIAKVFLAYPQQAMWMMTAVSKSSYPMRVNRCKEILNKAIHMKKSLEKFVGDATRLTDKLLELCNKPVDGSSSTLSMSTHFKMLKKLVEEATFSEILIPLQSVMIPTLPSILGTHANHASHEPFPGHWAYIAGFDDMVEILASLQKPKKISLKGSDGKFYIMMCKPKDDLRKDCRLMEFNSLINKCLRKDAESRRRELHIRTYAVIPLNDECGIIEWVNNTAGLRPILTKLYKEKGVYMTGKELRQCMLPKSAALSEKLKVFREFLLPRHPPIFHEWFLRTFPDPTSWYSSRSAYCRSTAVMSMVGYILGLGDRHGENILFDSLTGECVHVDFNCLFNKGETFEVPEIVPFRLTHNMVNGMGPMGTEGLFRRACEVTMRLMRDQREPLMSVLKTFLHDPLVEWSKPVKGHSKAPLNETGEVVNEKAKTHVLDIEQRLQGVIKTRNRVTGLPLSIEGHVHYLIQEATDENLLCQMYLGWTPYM

pKi | SMILES
6.00 to 8.00 | CN1CC2CN(C(=O)C3CCN(c4c(F)cncc4NC(=O)c4c(N)nn5cc(F)cnc45)CC3)CC2C1 (stereo not drawn) [I-G-18, 2-amino-6-fluoro-N-(5-fluoro-4-(4-(5-methyloctahydropyrrolo[3,4-c]pyrrole-2-carbonyl)piperidin-1-yl)pyridin-3-yl)pyrazolo[1,5-a]pyrimidine-3-carboxamide]

same assay, conditions: Ki(app), 5 nM full-length ATR, 10 μM ATP, 25° C.

SMILES | pKi
CN(C)C1CN(C(=O)C2CCN(c3c(F)cncc3NC(=O)c3c(N)nn4cc(F)cnc34)CC2)C1 [I-G-22, 2-amino-N-(4-(4-(3-(dimethylamino)azetidine-1-carbonyl)piperidin-1-yl)-5-fluoropyridin-3-yl)-6-fluoropyrazolo[1,5-a]pyrimidine-3-carboxamide] | 6.00 to 8.00
CN1CC(NC(=O)C2CCN(c3c(F)cncc3NC(=O)c3c(N)nn4cc(F)cnc34)CC2)C1 [I-G-23, 2-amino-6-fluoro-N-(5-fluoro-4-(4-((1-methylazetidin-3-yl)carbamoyl)piperidin-1-yl)pyridin-3-yl)pyrazolo[1,5-a]pyrimidine-3-carboxamide] | 6.00 to 8.00
CN1CCC(NC(=O)C2CCN(c3c(F)cncc3NC(=O)c3c(N)nn4cc(F)cnc34)CC2)C1 (stereo not drawn) [I-G-24, 2-amino-6-fluoro-N-(5-fluoro-4-(4-((1-methylpyrrolidin-3-yl)carbamoyl)piperidin-1-yl)pyridin-3-yl)pyrazolo[1,5-a]pyrimidine-3-carboxamide] | 6.00 to 8.00
CN1CCN(C(=O)C2(C#N)CCN(c3c(F)cncc3NC(=O)c3c(N)nn4cc(F)cnc34)CC2)CC1 [I-G-25, 2-amino-N-(4-(4-cyano-4-(4-methylpiperazine-1-carbonyl)piperidin-1-yl)-5-fluoropyridin-3-yl)-6-fluoropyrazolo[1,5-a]pyrimidine-3-carboxamide] | 6.00 to 8.00
CN(C)CCCNC(=O)C1CCN(c2c(F)cncc2NC(=O)c2c(N)nn3cc(F)cnc23)CC1 [I-G-26, 2-amino-N-(4-(4-((3-(dimethylamino)propyl)carbamoyl)piperidin-1-yl)-5-fluoropyridin-3-yl)-6-fluoropyrazolo[1,5-a]pyrimidine-3-carboxamide] | 6.00 to 8.00
CC1(C)CN(C(=O)C2CCN(c3c(F)cncc3NC(=O)c3c(N)nn4cc(F)cnc34)CC2)CCN1 [I-G-27, 2-amino-N-(4-(4-(3,3-dimethylpiperazine-1-carbonyl)piperidin-1-yl)-5-fluoropyridin-3-yl)-6-fluoropyrazolo[1,5-a]pyrimidine-3-carboxamide] | 6.00 to 8.00
CN(C)C(=O)C1CCN(c2c(F)cncc2NC(=O)c2c(N)nn3cc(F)cnc23)CC1 [I-G-29, 2-amino-N-(4-(4-(dimethylcarbamoyl)piperidin-1-yl)-5-fluoropyridin-3-yl)-6-fluoropyrazolo[1,5-a]pyrimidine-3-carboxamide] | 6.00 to 8.00
CN(C)CCN(C)C(=O)C1CCN(c2c(F)cncc2NC(=O)c2c(N)nn3cc(F)cnc23)CC1 [I-G-31, 2-amino-N-(4-(4-((2-(dimethylamino)ethyl)(methyl)carbamoyl)piperidin-1-yl)-5-fluoropyridin-3-yl)-6-fluoropyrazolo[1,5-a]pyrimidine-3-carboxamide] | 6.00 to 8.00
CNC1CN(C(=O)C2CCN(c3c(F)cncc3NC(=O)c3c(N)nn4cc(F)cnc34)CC2)C1 [I-G-34, 2-amino-6-fluoro-N-(5-fluoro-4-(4-(3-(methylamino)azetidine-1-carbonyl)piperidin-1-yl)pyridin-3-yl)pyrazolo[1,5-a]pyrimidine-3-carboxamide] | 6.00 to 8.00
Nc1nn2cc(F)cnc2c1C(=O)Nc1cncc(F)c1N1CCC(C(=O)N2CCN(C3CCC3)CC2)CC1 [I-G-35, 2-amino-N-(4-(4-(4-cyclobutylpiperazine-1-carbonyl)piperidin-1-yl)-5-fluoropyridin-3-yl)-6-fluoropyrazolo[1,5-a]pyrimidine-3-carboxamide] | 6.00 to 8.00
Nc1nn2cc(F)cnc2c1C(=O)Nc1cncc(F)c1N1CCC(C(=O)N2CCOCC2)CC1 [I-G-36, 2-amino-6-fluoro-N-(5-fluoro-4-(4-(morpholine-4-carbonyl)piperidin-1-yl)pyridin-3-yl)pyrazolo[1,5-a]pyrimidine-3-carboxamide] | 6.00 to 8.00

Next, values leading:

pKi | SMILES
> 8.00 | COc1cncc(NC(=O)c2c(N)nn3cc(F)cnc23)c1-c1cncn1C [I-C-81, 2-amino-6-fluoro-N-(5-methoxy-4-(1-methyl-1H-imidazol-5-yl)pyridin-3-yl)pyrazolo[1,5-a]pyrimidine-3-carboxamide]
6.00 to 8.00 | COc1cncc(NC(=O)c2c(N)nn3cc(F)cnc23)c1-c1cccnc1 [I-C-82, 2-amino-6-fluoro-N-(5′-methoxy-[3,4′-bipyridin]-3′-yl)pyrazolo[1,5-a]pyrimidine-3-carboxamide]
6.00 to 8.00 | COCCn1cncc1-c1ccncc1NC(=O)c1c(N)nn2cc(F)cnc12 [I-C-83, 2-amino-6-fluoro-N-(4-(1-(2-methoxyethyl)-1H-imidazol-5-yl)pyridin-3-yl)pyrazolo[1,5-a]pyrimidine-3-carboxamide]
6.00 to 8.00 | COc1cncc(NC(=O)c2c(N)nn3cc(F)cnc23)c1C1CC1 [I-C-84, 2-amino-N-(4-cyclopropyl-5-methoxypyridin-3-yl)-6-fluoropyrazolo[1,5-a]pyrimidine-3-carboxamide]
6.00 to 8.00 | CN1CCN(C(=O)C2CCN(c3ccncc3NC(=O)c3c(N)nn4cc(F)cnc34)CC2)CC1 [I-G-1, 2-amino-6-fluoro-N-(4-(4-(4-methylpiperazine-1-carbonyl)piperidin-1-yl)pyridin-3-yl)pyrazolo[1,5-a]pyrimidine-3-carboxamide]
6.00 to 8.00 | CN(C)C(=O)C1CCN(c2ccncc2NC(=O)c2c(N)nn3cc(F)cnc23)CC1 [I-G-2, 2-amino-N-(4-(4-(dimethylcarbamoyl)piperidin-1-yl)pyridin-3-yl)-6-fluoropyrazolo[1,5-a]pyrimidine-3-carboxamide]
6.00 to 8.00 | CN1CCN(C(=O)C2CCN(c3c(Cl)cncc3NC(=O)c3c(N)nn4cc(F)cnc34)CC2)CC1 [I-G-3, 2-amino-N-(5-chloro-4-(4-(4-methylpiperazine-1-carbonyl)piperidin-1-yl)pyridin-3-yl)-6-fluoropyrazolo[1,5-a]pyrimidine-3-carboxamide]
6.00 to 8.00 | CN1CCN(C(=O)C2CCN(c3c(F)cncc3NC(=O)c3c(N)nn4cc(Cl)cnc34)CC2)CC1 [I-G-5, 2-amino-6-chloro-N-(5-fluoro-4-(4-(4-methylpiperazine-1-carbonyl)piperidin-1-yl)pyridin-3-yl)pyrazolo[1,5-a]pyrimidine-3-carboxamide]
6.00 to 8.00 | CN1CCCN(C(=O)C2CCN(c3c(F)cncc3NC(=O)c3c(N)nn4cc(F)cnc34)CC2)CC1 [I-G-6, 2-amino-6-fluoro-N-(5-fluoro-4-(4-(4-methyl-1,4-diazepane-1-carbonyl)piperidin-1-yl)pyridin-3-yl)pyrazolo[1,5-a]pyrimidine-3-carboxamide]
6.00 to 8.00 | Nc1nn2cc(F)cnc2c1C(=O)Nc1cncc(F)c1N1CCC(C(=O)N2CCC2)CC1 [I-G-8, 2-amino-N-(4-(4-(azetidine-1-carbonyl)piperidin-1-yl)-5-fluoropyridin-3-yl)-6-fluoropyrazolo[1,5-a]pyrimidine-3-carboxamide]
6.00 to 8.00 | CCN1CCN(C(=O)C2CCN(c3c(F)cncc3NC(=O)c3c(N)nn4cc(F)cnc34)CC2)CC1 [I-G-9, 2-amino-N-(4-(4-(4-ethylpiperazine-1-carbonyl)piperidin-1-yl)-5-fluoropyridin-3-yl)-6-fluoropyrazolo[1,5-a]pyrimidine-3-carboxamide]
6.00 to 8.00 | Nc1nn2cc(F)cnc2c1C(=O)Nc1cncc(F)c1N1CCC(C(=O)N2CCN3CCCC3C2)CC1 (stereo not drawn) [I-G-10, 2-amino-6-fluoro-N-(5-fluoro-4-(4-(octahydropyrrolo[1,2-a]pyrazine-2-carbonyl)piperidin-1-yl)pyridin-3-yl)pyrazolo[1,5-a]pyrimidine-3-carboxamide]
6.00 to 8.00 | CN(C)[C@@H]1CCN(C(=O)C2CCN(c3c(F)cncc3NC(=O)c3c(N)nn4cc(F)cnc34)CC2)C1 [I-G-11, (R)-2-amino-N-(4-(4-(3-(dimethylamino)pyrrolidine-1-carbonyl)piperidin-1-yl)-5-fluoropyridin-3-yl)-6-fluoropyrazolo[1,5-a]pyrimidine-3-carboxamide]
6.00 to 8.00 | Nc1nn2cc(F)cnc2c1C(=O)Nc1cncc(F)c1N1CCC(C(=O)N2CCN(C3CC3)CC2)CC1 [I-G-13, 2-amino-N-(4-(4-(4-cyclopropylpiperazine-1-carbonyl)piperidin-1-yl)-5-fluoropyridin-3-yl)-6-fluoropyrazolo[1,5-a]pyrimidine-3-carboxamide]
6.00 to 8.00 | CN1CCN(C(=O)C2CCN(c3c(F)cncc3NC(=O)c3c(N)nn4cc(F)cnc34)CC2)CC1(C)C [I-G-15, 2-amino-6-fluoro-N-(5-fluoro-4-(4-(3,3,4-trimethylpiperazine-1-carbonyl)piperidin-1-yl)pyridin-3-yl)pyrazolo[1,5-a]pyrimidine-3-carboxamide]
6.00 to 8.00 | CN(C)CCCN(C)C(=O)C1CCN(c2c(F)cncc2NC(=O)c2c(N)nn3cc(F)cnc23)CC1 [I-G-16, 2-amino-N-(4-(4-((3-(dimethylamino)propyl)(methyl)carbamoyl)piperidin-1-yl)-5-fluoropyridin-3-yl)-6-fluoropyrazolo[1,5-a]pyrimidine-3-carboxamide]
6.00 to 8.00 | CC(C)(C)NC(=O)C1CCN(c2c(F)cncc2NC(=O)c2c(N)nn3cc(F)cnc23)CC1 [I-G-19, 2-amino-N-(4-(4-(tert-butylcarbamoyl)piperidin-1-yl)-5-fluoropyridin-3-yl)-6-fluoropyrazolo[1,5-a]pyrimidine-3-carboxamide]
6.00 to 8.00 | CN1CCC(NC(=O)C2CCN(c3c(F)cncc3NC(=O)c3c(N)nn4cc(F)cnc34)CC2)CC1 [I-G-20, 2-amino-6-fluoro-N-(5-fluoro-4-(4-((1-methylpiperidin-4-yl)carbamoyl)piperidin-1-yl)pyridin-3-yl)pyrazolo[1,5-a]pyrimidine-3-carboxamide]
